From ChEMBL document CHEMBL1201861, “Genomics of Drug Sensitity in Cancer screening data, Wellcome Trust Sanger Institute”

Tests used:
Assay in all cases: cells
CP50-MEL-B = assay type: functional, cell-based; details: Homo sapiens;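 further: growth inhibition of the human cell line, measured with a cell viability read-out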
Description: SANGER: Inhibition of human CP50-MEL-B cell growth in a cell viability assay.

CW-2 = assay type: functional, cell-based, Homo sapiens; details: Homo sapiens, CW-2;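 further: growth inhibition of CW-2 cells, read out by a cell viability assay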
Description: SANGER: Inhibition of human CW-2 cell growth in a cell viability assay.

Calu-6 = assay type: functional, cell-based, Homo sapiens; details: Homo sapiens, Calu-6;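 further: growth of human Calu-6 cells, read out by a cell viability assay, IC50 marking inhibition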
Description: SANGER: Inhibition of human Calu-6 cell growth in a cell viability assay.

EW-11 = assay type: functional, cell-based, Homo sapiens; details: Homo sapiens, EW-11;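 further: growth inhibition of human EW-11 cells, measured with a cell viability assay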
Description: SANGER: Inhibition of human EW-11 cell growth in a cell viability assay.

GB-1 = assay type: functional, cell-based, Homo sapiens; details: Homo sapiens, GB-1;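 further: growth of GB-1 cells judged by a viability assay, IC50 marks the concentration inhibiting growth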
Description: SANGER: Inhibition of human GB-1 cell growth in a cell viability assay.

GCIY = assay type: functional, cell-based, Homo sapiens; details: Homo sapiens, GCIY;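 further: growth inhibition of the human GCIY cell line, read out by a cell viability assay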
Description: SANGER: Inhibition of human GCIY cell growth in a cell viability assay.

GT3TKB = assay type: functional, cell-based, Homo sapiens; details: Homo sapiens, GT3TKB;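 further: growth inhibition of the cell line, read out with a cell viability assay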
Description: SANGER: Inhibition of human GT3TKB cell growth in a cell viability assay.

HDLM-2 = assay type: functional, cell-based, Homo sapiens; details: Homo sapiens, HDLM-2;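 further: cell viability assay measuring suppression of HDLM-2 proliferation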
Description: SANGER: Inhibition of human HDLM-2 cell growth in a cell viability assay.

HOP-62 = assay type: functional, cell-based, Homo sapiens; details: Homo sapiens, HOP-62;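 further: cell growth inhibition determined with a viability assay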
Description: SANGER: Inhibition of human HOP-62 cell growth in a cell viability assay.

HT = assay type: functional, cell-based, Homo sapiens; details: Homo sapiens, HT
Description: SANGER: Inhibition of human HT cell growth in a cell viability assay.

JVM-3 = assay type: functional, cell-based, Homo sapiens; details: Homo sapiens, JVM-3;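 further: growth inhibition of human JVM-3 cells, read out with a cell viability assay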
Description: SANGER: Inhibition of human JVM-3 cell growth in a cell viability assay.

KARPAS-299 = assay type: functional, cell-based, Homo sapiens; details: Homo sapiens, KARPAS-299
Description: SANGER: Inhibition of human KARPAS-299 cell growth in a cell viability assay.

KINGS-1 = assay type: functional, cell-based, Homo sapiens; details: Homo sapiens, KINGS-1;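 further: cell viability assay measuring suppression of KINGS-1 cell growth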
Description: SANGER: Inhibition of human KINGS-1 cell growth in a cell viability assay.

KNS-81-FD = assay type: functional, cell-based, Homo sapiens; details: Homo sapiens, KNS-81-FD;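 further: growth inhibition of KNS-81-FD cells, read out with a cell viability assay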
Description: SANGER: Inhibition of human KNS-81-FD cell growth in a cell viability assay.

KY821 = assay type: functional, cell-based, Homo sapiens; details: Homo sapiens, KY821;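 further: growth inhibition of human KY821 cells, read out by a cell viability assay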
Description: SANGER: Inhibition of human KY821 cell growth in a cell viability assay.

LB1047-RCC = assay type: functional, cell-based, Homo sapiens; details: Homo sapiens, LB1047-RCC;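 further: inhibition of cell growth, determined with a cell viability assay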
Description: SANGER: Inhibition of human LB1047-RCC cell growth in a cell viability assay.

LB2241-RCC = assay type: functional, cell-based, Homo sapiens; details: Homo sapiens, LB2241-RCC;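 further: cell viability assay measuring how strongly the cultured human renal carcinoma line is prevented from growing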
Description: SANGER: Inhibition of human LB2241-RCC cell growth in a cell viability assay.

LB2518-MEL = assay type: functional, cell-based; details: Homo sapiens;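 further: growth inhibition of human LB2518-MEL cells, measured with a cell viability assay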
Description: SANGER: Inhibition of human LB2518-MEL cell growth in a cell viability assay.

LC-2-ad = assay type: functional, cell-based, Homo sapiens; details: Homo sapiens, LC-2-ad;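 further: growth inhibition of human LC-2-ad cells, read out with a cell viability assay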
Description: SANGER: Inhibition of human LC-2-ad cell growth in a cell viability assay.

LS-123 = assay type: functional, cell-based, Homo sapiens; details: Homo sapiens, LS-123
Description: SANGER: Inhibition of human LS-123 cell growth in a cell viability assay.

LU-134-A = assay type: functional, cell-based, Homo sapiens; details: Homo sapiens, LU-134-A
Description: SANGER: Inhibition of human LU-134-A cell growth in a cell viability assay.

MEG-01 = assay type: functional, cell-based, Homo sapiens; details: Homo sapiens, MEG-01;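 further: growth inhibition of MEG-01 cells, read out by a cell viability assay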
Description: SANGER: Inhibition of human MEG-01 cell growth in a cell viability assay.

MHH-NB-11 = assay type: functional, cell-based, Homo sapiens; details: Homo sapiens, MHH-NB-11;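 further: growth inhibition of human MHH-NB-11 cells, read out by a cell viability assay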
Description: SANGER: Inhibition of human MHH-NB-11 cell growth in a cell viability assay.

MHH-PREB-1 = assay type: functional, cell-based, Homo sapiens; details: Homo sapiens, MHH-PREB-1;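 further: cell viability assay measuring inhibition of proliferation of human MHH-PREB-1 cells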
Description: SANGER: Inhibition of human MHH-PREB-1 cell growth in a cell viability assay.

MS-1 = assay type: functional, cell-based, Homo sapiens; details: Homo sapiens, MS-1;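 further: growth inhibition of MS-1 cells, read out by cell viability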
Description: SANGER: Inhibition of human MS-1 cell growth in a cell viability assay.

MV4-11 = assay type: functional, cell-based, Homo sapiens, MV-4-11; details: Homo sapiens, MV4-11;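 further: cell viability readout measuring growth inhibition of human MV-4-11 cells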
Description: SANGER: Inhibition of human MV-4-11 cell growth in a cell viability assay.

NB6 = assay type: functional, cell-based, Homo sapiens; details: Homo sapiens, NB6;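 further: growth inhibition of NB6 cells, read out by a cell viability assay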
Description: SANGER: Inhibition of human NB6 cell growth in a cell viability assay.

NCI-H1299 = assay type: functional, cell-based; details: Homo sapiens;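 further: growth inhibition of human NCI-H1299 cells, read out by a cell viability assay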
Description: SANGER: Inhibition of human NCI-H1299 cell growth in a cell viability assay.

NCI-H1355 = assay type: functional, cell-based, Homo sapiens; details: Homo sapiens, NCI-H1355;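 further: growth inhibition of human NCI-H1355 cells, read out by a cell viability assay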
Description: SANGER: Inhibition of human NCI-H1355 cell growth in a cell viability assay.

NCI-H1395 = assay type: functional, cell-based, Homo sapiens; details: Homo sapiens, NCI-H1395;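 further: cell viability assay read-out quantifying reduced proliferation of human NCI-H1395 cells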
Description: SANGER: Inhibition of human NCI-H1395 cell growth in a cell viability assay.

NCI-H209 = assay type: functional, cell-based, Homo sapiens; details: Homo sapiens, NCI-H209;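 further: growth inhibition of human NCI-H209 cells, measured by a cell viability assay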
Description: SANGER: Inhibition of human NCI-H209 cell growth in a cell viability assay.

NCI-H747 = assay type: functional, cell-based, Homo sapiens; details: Homo sapiens, NCI-H747;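 further: growth inhibition of human NCI-H747 cells, read out by a cell viability assay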
Description: SANGER: Inhibition of human NCI-H747 cell growth in a cell viability assay.

NTERA-2-cl-D1 = assay type: functional, cell-based, Homo sapiens; details: Homo sapiens, NTERA-2-cl-D1;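 further: inhibition of cell growth, measured with a cell viability assay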
Description: SANGER: Inhibition of human NTERA-S-cl-D1 cell growth in a cell viability assay.

OCI-AML2 = assay type: functional, cell-based, Homo sapiens; details: Homo sapiens, OCI-AML2;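 further: growth inhibition of OCI-AML2 cells, read out with a cell viability assay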
Description: SANGER: Inhibition of human OCI-AML2 cell growth in a cell viability assay.

OCUB-M = assay type: functional, cell-based; details: Homo sapiens;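 further: growth inhibition of the cancer cell line, read out through a cell viability assay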
Description: SANGER: Inhibition of human OCUB-M cell growth in a cell viability assay.

OS-RC-2 = assay type: functional, cell-based, Homo sapiens; details: Homo sapiens, OS-RC-2;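 further: growth inhibition of human OS-RC-2 cells, measured by a cell viability assay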
Description: SANGER: Inhibition of human OS-RC-2 cell growth in a cell viability assay.

SK-MEL-2 = assay type: functional, cell-based, Homo sapiens; details: Homo sapiens, SK-MEL-2;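 further: growth inhibition of human SK-MEL-2 cells measured with a cell viability assay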
Description: SANGER: Inhibition of human SK-MEL-2 cell growth in a cell viability assay.

SNB-75 = assay type: functional, cell-based, Homo sapiens; details: Homo sapiens, SNB-75;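 further: cell viability assay measuring growth inhibition of human SNB-75 cells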
Description: SANGER: Inhibition of human SNB75 cell growth in a cell viability assay.

SW 954 = assay type: functional, cell-based, Homo sapiens; details: Homo sapiens, SW 954;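 further: growth inhibition of SW954 human cancer cells, read out as cell viability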
Description: SANGER: Inhibition of human SW954 cell growth in a cell viability assay.

8-MG-BA = assay type: functional, cell-based, Homo sapiens; details: Homo sapiens, 8-MG-BA;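 further: growth inhibition of 8-MG-BA cells, read out with a cell viability assay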
Description: SANGER: Inhibition of human 8-MG-BA cell growth in a cell viability assay.

A3-KAW = assay type: functional, cell-based, Homo sapiens; details: Homo sapiens, A3-KAW;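 further: growth inhibition of human A3-KAW cells, read out with a cell viability assay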
Description: SANGER: Inhibition of human A3-KAW cell growth in a cell viability assay.

A4-Fuk = assay type: functional, cell-based, Homo sapiens; details: Homo sapiens, A4-Fuk;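 further: growth inhibition of A4-Fuk cells, read out by a cell viability assay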
Description: SANGER: Inhibition of human A4-Fuk cell growth in a cell viability assay.

AU565 = assay type: functional, cell-based; details: Homo sapiens;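 further: cell viability assay measuring growth inhibition of human AU565 cells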
Description: SANGER: Inhibition of human AU565 cell growth in a cell viability assay.

BB30-HNC = assay type: functional, cell-based, Homo sapiens; details: Homo sapiens, BB30-HNC;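 further: growth inhibition of the cultured cell line, read out by a cell viability assay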
Description: SANGER: Inhibition of human BB30-HNC cell growth in a cell viability assay.

BB65-RCC = assay type: functional, cell-based, Homo sapiens; details: Homo sapiens, BB65-RCC;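 further: growth inhibition of the cell line, measured with a cell viability assay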
Description: SANGER: Inhibition of human BB65-RCC cell growth in a cell viability assay.

BFTC-905 = assay type: functional, cell-based; details: Homo sapiens
Description: SANGER: Inhibition of human BFTC-905 cell growth in a cell viability assay.

TE-10 = assay type: functional, cell-based, Homo sapiens; details: Homo sapiens, TE-10;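 further: growth inhibition of TE-10 cells, measured by a cell viability assay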
Description: SANGER: Inhibition of human TE-10 cell growth in a cell viability assay.

TE-12 = assay type: functional, cell-based, Homo sapiens; details: Homo sapiens, TE-12;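 further: growth inhibition of TE-12 cells, read out by a cell viability assay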
Description: SANGER: Inhibition of human TE-12 cell growth in a cell viability assay.

no-11 = assay type: functional, cell-based, Homo sapiens; details: Homo sapiens;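 further: growth inhibition of human NO-11 cells, read out with a cell viability assay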
Description: SANGER: Inhibition of human no-11 cell growth in a cell viability assay.

COLO-668 = assay type: functional, cell-based, Homo sapiens; details: Homo sapiens, COLO-668
Description: SANGER: Inhibition of human COLO-668 cell growth in a cell viability assay.

CCCCCCCCCCCC1=C(O)C(=O)C=C(O)C1=O [EMBELIN]
IC50 (CP50-MEL-B): > 32 µM
IC50 (CW-2): > 32 µM
IC50 (Calu-6): 4.83 µM
IC50 (EW-11): > 32 µM
IC50 (GB-1): 5.23 µM
IC50 (GCIY): 10.1 µM
IC50 (GT3TKB): 3.62 µM
IC50 (HDLM-2): 17.2 µM
IC50 (HOP-62): 5.69 µM
IC50 (HT): 5.51 µM
IC50 (JVM-3): > 32 µM
IC50 (KARPAS-299): > 32 µM
IC50 (KINGS-1): > 32 µM
IC50 (KNS-81-FD): 19.5 µM
IC50 (KY821): > 32 µM
IC50 (LB1047-RCC): 5.8 µM
IC50 (LB2241-RCC): > 32 µM
IC50 (LB2518-MEL): > 32 µM
IC50 (LC-2-ad): 12.9 µM
IC50 (LS-123): 9.42 µM
IC50 (LU-134-A): > 32 µM
IC50 (MEG-01): 25.5 µM
IC50 (MHH-NB-11): > 32 µM
IC50 (MHH-PREB-1): 10.9 µM
IC50 (MS-1): > 32 µM
IC50 (MV4-11): > 32 µM
IC50 (NB6): > 32 µM
IC50 (NCI-H1299): > 32 µM
IC50 (NCI-H1355): 10.1 µM
IC50 (NCI-H1395): > 32 µM
IC50 (NCI-H209): > 32 µM
IC50 (NCI-H747): 14.3 µM
IC50 (NTERA-2-cl-D1): 1.6 µM
IC50 (OCI-AML2): 9.25 µM
IC50 (OCUB-M): 5.32 µM
IC50 (OS-RC-2): 9.34 µM
IC50 (SK-MEL-2): 11.7 µM
IC50 (SNB-75): 17.4 µM
IC50 (SW 954): 31.1 µM
IC50 (8-MG-BA): 3.53 µM
IC50 (A3-KAW): 9.01 µM
IC50 (A4-Fuk): > 32 µM
IC50 (AU565): 9.91 µM
IC50 (BB30-HNC): 5.06 µM
IC50 (BB65-RCC): 11.4 µM
IC50 (BFTC-905): 5.03 µM
IC50 (TE-10): 13.3 µM
IC50 (TE-12): 14.4 µM
IC50 (no-11): 9.88 µM
IC50 (COLO-668): > 32 µM

CC1=C(/C=C/C(C)=C/C=C/C(C)=C/C(=O)O)C(C)(C)CCC1 [TRETINOIN]
IC50 (CP50-MEL-B): > 10 µM
IC50 (CW-2): > 10 µM
IC50 (Calu-6): > 10 µM
IC50 (EW-11): > 10 µM
IC50 (GB-1): > 10 µM
IC50 (GCIY): > 10 µM
IC50 (GT3TKB): > 10 µM
IC50 (HDLM-2): > 10 µM
IC50 (HOP-62): > 10 µM
IC50 (HT): > 10 µM
IC50 (JVM-3): > 10 µM
IC50 (KARPAS-299): > 10 µM
IC50 (KINGS-1): > 10 µM
IC50 (KNS-81-FD): > 10 µM
IC50 (KY821): 5.7 µM
IC50 (LB1047-RCC): > 10 µM
IC50 (LB2241-RCC): > 10 µM
IC50 (LB2518-MEL): > 10 µM
IC50 (LC-2-ad): > 10 µM
IC50 (LS-123): > 10 µM
IC50 (LU-134-A): > 10 µM
IC50 (MEG-01): 9.61 µM
IC50 (MHH-NB-11): > 10 µM
IC50 (MHH-PREB-1): > 10 µM
IC50 (MS-1): > 10 µM
IC50 (MV4-11): 0.021 µM
IC50 (NB6): > 10 µM
IC50 (NCI-H1299): > 10 µM
IC50 (NCI-H1355): > 10 µM
IC50 (NCI-H1395): > 10 µM
IC50 (NCI-H209): 2.52 µM
IC50 (NCI-H747): > 10 µM
IC50 (NTERA-2-cl-D1): > 10 µM
IC50 (OCI-AML2): > 10 µM
IC50 (OCUB-M): > 10 µM
IC50 (OS-RC-2): > 10 µM
IC50 (SK-MEL-2): > 10 µM
IC50 (SNB-75): > 10 µM
IC50 (SW 954): > 10 µM
IC50 (8-MG-BA): > 10 µM
IC50 (A3-KAW): 7.6 µM
IC50 (A4-Fuk): > 10 µM
IC50 (AU565): > 10 µM
IC50 (BB30-HNC): > 10 µM
IC50 (BB65-RCC): > 10 µM
IC50 (BFTC-905): > 10 µM
IC50 (TE-10): > 10 µM
IC50 (TE-12): > 10 µM
IC50 (no-11): > 10 µM
IC50 (COLO-668): > 10 µM
